Broadly, the IC50 is the point on the concentration scale where inhibition reaches its midpoint. Low values mean higher potency, high ones lower potency.

Test [1] concerns CYP11 B2 (aldosterone synthase) over CYP11 B1 (11ß-hydroxylase). The note with it: prior art; cited from earlier work.
Test [2] concerns human cryosections of normal adrenal gland and conn-adenomas. The note with it: reference compound in the cryosection experiments; cited from earlier work.
Test [3] concerns the target T1, CYP11 B2 (Homo sapiens, UniProt P19099).
T1 sequence (P19099 25-503): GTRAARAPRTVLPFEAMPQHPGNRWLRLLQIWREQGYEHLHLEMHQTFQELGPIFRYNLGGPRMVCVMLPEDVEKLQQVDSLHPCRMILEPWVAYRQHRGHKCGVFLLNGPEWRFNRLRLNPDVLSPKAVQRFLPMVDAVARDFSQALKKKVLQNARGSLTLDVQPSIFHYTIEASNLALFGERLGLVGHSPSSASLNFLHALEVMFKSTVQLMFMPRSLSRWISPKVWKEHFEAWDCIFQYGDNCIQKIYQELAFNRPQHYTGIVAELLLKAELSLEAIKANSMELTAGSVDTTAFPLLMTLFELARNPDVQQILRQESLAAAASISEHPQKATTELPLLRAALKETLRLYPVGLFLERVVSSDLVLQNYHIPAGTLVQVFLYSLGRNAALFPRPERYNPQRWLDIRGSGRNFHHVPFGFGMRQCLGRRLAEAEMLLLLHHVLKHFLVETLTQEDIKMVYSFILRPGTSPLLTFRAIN
Briefly: Indirect evaluation of CYP11 B2 inhibition in NCI-H295 cells (aldosterone radioimmunoassay). In kind it is cell-based. Details: The cells contain the whole cascade of enzymes for producing these hormones; host or cells: NCI-H295. As to the method:
(§1) For indirect evaluation of inhibition of CYB11 B1 and CYP11 B2 by different inhibitors, cells of the adrenocortical cell line NCI-H295 were cultured on 6-well plates by seeding 1x10^6 cells per well. NCI-H295 cells were obtained from ATCC (American Type Culture Collection) under ATCC number CRL-10296 via LGC Standards GmbH - Germany Office, Mercatorstr. 51, 46485 Wesel, Germany. NCI-H295 cells can also be obtained from Bioresource Collection and Research Centre (BCRC), 331, Shih-Pin Rd., Hsinchu 30062, Taiwan under BCRC number 60354. NCI-H295 cells produce cortisol as well as aldosterone. The cells contain the whole cascade of enzymes for producing these hormones. […] NCI-H295 cells treated in the same way but without inhibitor served as controls.
(§2) Concentrations of cortisol and aldosterone in the supernatants of the cells were determined by commercially available radioimmunoassays (DPC Biermann, Bad Nauheim, Germany; IBL international, Hamburg, Germany). The intraassay variance of both assays was <8%, the interassay variance <12%.
(§3) The IC50 values are calculated according to the following general equation: IC50 = (1+([S])/(Km))⋅Ki [formula]
(§4) S = Substrate concentration, Km = Michaelis-Menten constant, Ki = Dissociation constant.

The subject of test [4] is human cryosections of normal adrenal gland and conn-adenomas. Briefly: Binding of 18F-labelled compounds to human cryosections (Fig. 5). The note with it: 18F-labelled compound, 0.1 MBq, with or without 10µM of the corresponding nonradioactive compound. As to the method:
The binding of the ^18F-labelled compounds no. 188, 189, and 191 to human cryosections of normal adrenal gland and conn-adenomas was studied. The meaning of the abbreviations is as follows: nNN = normal adrenal gland, APA = aldosterone producing adenoma, CPA = cortisol producing adenoma, ACC = adrenocortical carcinoma, IMTO = ^125I-Iodometomidate (an established tracer compound), A= 0.1 MBq of the radioactive compound + 10µM of the corresponding nonradioactive compound, B= 0.1 MBq of the radioactive compound.
Corresponding hematoxilin-eosin (HE) stained slices enlarged by a factor of 2.5 and 5, respectively are shown on the right side of Fig. 5.

In test [5] the target is T2, CYP11 B1 (Homo sapiens, UniProt P15538).
T2 sequence (P15538 25-503): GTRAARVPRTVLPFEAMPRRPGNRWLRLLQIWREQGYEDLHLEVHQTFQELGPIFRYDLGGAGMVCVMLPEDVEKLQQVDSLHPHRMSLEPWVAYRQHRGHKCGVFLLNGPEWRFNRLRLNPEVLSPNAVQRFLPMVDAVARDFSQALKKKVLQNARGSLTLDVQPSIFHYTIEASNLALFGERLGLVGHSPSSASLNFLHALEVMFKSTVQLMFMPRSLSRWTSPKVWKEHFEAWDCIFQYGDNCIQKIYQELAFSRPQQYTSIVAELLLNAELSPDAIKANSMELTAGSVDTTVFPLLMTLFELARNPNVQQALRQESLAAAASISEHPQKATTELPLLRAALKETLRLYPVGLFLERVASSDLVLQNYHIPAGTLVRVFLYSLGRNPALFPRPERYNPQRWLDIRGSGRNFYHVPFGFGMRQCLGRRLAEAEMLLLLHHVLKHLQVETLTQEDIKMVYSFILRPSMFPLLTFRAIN
Briefly: Inhibition of CYP11 B1 in Y1-CYP11 B1 cells (cortisol radioimmunoassay). Set-up: expressed in transfected cells; host or cells: murine Y1 adrenal adenocarcinoma cells (Y1-CYP11 B1 cells). The note with it: Y1-Cells stably transfected with human CYP11 B1 gene; 1 µM RSS substrate; 48 hours. In kind it is cell-based. As to the method:
(§5) Y-1 is a continuous epithelial cell line derived from a murine adrenal adenocarcinoma. Y-1-cells are in the following designated "Y1-cells". They were obtained from CLS Cell Lines Service GmbH, Dr.Eckener-Str. 8, 69214 Eppelheim, Germany under order number 0477 MA. They can also be obtained from ATCC under ATCC number CCL-79. Y1-cells stably transfected with human CYP11 B1 gene (Y1-CYP11 B1 cells) and Y1-cells stably transfected with human CYP11 B2 gene (Y1-CYP11 B2 cells) were cultured on 6-well plates by seeding 5 x 10^5 cells per well in 2 ml of culture medium. The enzyme reaction was started after 24 hours by addition of 1 ml culture medium containing either 1 µM RSS ([…]) or 1µM DOC (Deoxycorticosteronacetat) as substrate and the corresponding inhibitor at concentrations between 0.1 nM - 10 µM followed by incubation for 48 hours. RSS and DOC were dissolved in ethanol prior to addition to the culture medium. RSS and DOC are precursors of cortisol and aldosterone, respectively. […] Y1-Cyp11 B1 and Y1-Cyp11 B2 cells treated in the same way but without inhibitor served as controls.
as §2, §3, §4
(§6) IC50 values determined by use of Y1-CYP11 B1 cells are designated as "IC50CYP11 B1" and IC50 values determined by use of Y1-CYP11 B2 cells are designated as "IC50CYP11 B2". A selectivity factor was calculated by the following formula: IC50CYP11 B1/IC50CYP11 B2

Test [6] deals with T3, human aldosterone synthase (Homo sapiens, UniProt P19099).
T3 construct: expressed in transfected cells; host or cells: mice expressing human aldosterone synthase (humanized mice), in vivo
T3 sequence (P19099 25-503): T1 sequence (P19099 25-503)
Briefly: In vivo evaluation of aldosterone synthesis in mice expressing human aldosterone synthase (Fig. 10). Conditions: i.v., 1 h after injection. Details: species or system mouse. As to the method:
An in vivo evaluation of the influence of several substances and conditions and one compound according to the invention on human aldosterone synthase was performed using mice expressing human aldosterone synthase.
Detection of inhibition of aldosterone synthesis is facilitated by a high aldosterone level. Therefore, the influence of a low-sodium-diet, of drinking water with high concentration of potassium for 24 h before start of the experiment, and of the age and sex of the mice was investigated in order to find out conditions resulting in a high aldosterone level. The result was that drinking water with a high concentration of potassium ions for 24 h before start of the experiment is able to increase the aldosterone level. The secretion of aldosterone varied with the age of the mice. Sex of the mice had no significant effect.

Test [7] concerns the target T1, CYP11 B2. Briefly: Inhibition of CYP11 B2 in Y1-CYP11 B2 cells (aldosterone radioimmunoassay). In kind it is cell-based. Details: expressed in transfected cells; host or cells: murine Y1 adrenal adenocarcinoma cells (Y1-CYP11 B2 cells). As to the method:
as §5, §2, §3, §4, §6

For test [8], the target named is T2, CYP11 B1. Briefly: Indirect evaluation of CYP11 B1 inhibition in NCI-H295 cells (cortisol radioimmunoassay). In kind it is cell-based. Details: The cells contain the whole cascade of enzymes for producing these hormones; host or cells: NCI-H295. Conditions: 48 hours. As to the method: as §1, §2, §3, §4

On to `FCCn1c(-c2cncc(Cn3ccnc3)c2)nc2cc(F)c(Cl)cc21` [CDP2230], for which the “selectivity for CYP11 B2 over CYP11 B1” value in test [1] is on record as “higher than that of MTO analogues”.

On to `COC(=O)c1cncn1[C@H](C)c1ccc(I)cc1` [IMTO, ^125I-Iodometomidate], for which, in test [2], the “binding to CYP11 B1 and CYP11 B2” value is “binds nonspecifically to CYP11 B1 and CYP11 B2”.

In the case of `COC(=O)c1cncn1C(C)c1ccccc1` (centres unmarked) [MTO, ^11C-metomidate], the “selectivity for CYP11 B2 over CYP11 B1” value in test [1] was “low selectivity”.

Turning to `N#Cc1ccc(-c2cncc(C3OCCO3)c2)cc1F` [compound 191], the concentration for half-maximal inhibition (IC50) against CYP11 B2 [3] (48 hours) turned out to be 1.1 ± 0.5 nM; against CYP11 B1 [5] it was 40.1 ± 16.2 nM; on CYP11 B2 [7] (Y1-Cells stably transfected with human CYP11 B2 gene, 1µM DOC substrate, 48 hours), 0.98 ± 0.35 nM; on CYP11 B1 [8], 15.5 ± 8.1 nM. For the same compound, the Selectivity factor on CYP11 B2 [3] (IC50 CYP11 B1/IC50 CYP11 B2) was determined as 13.1; at CYP11 B2 [7] (Y1-Cells, IC50CYP11 B1/IC50CYP11 B2), 40.1. Besides, in test [4], the “significant and specific binding” value is “best results with respect to a significant and specific binding”. In test [6], the “inhibition of the secretion of aldosterone” value is on record as “potent inhibition of the secretion of aldosterone”.

The values above are taken from patent publication EP3357910A1, “COMPOUND FOR IN VIVO DIAGNOSIS OF A DYSFUNCTION OF ADRENAL GLANDS” (Julius-Maximilians-Universität Würzburg, priority 2017, dated 2018).
